Data: PubChem BioAssay (NCI)
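Growth conditions: 96-well plates. Treatment: test compound, 48 hours, 5 concentrations. Analysis: linear interpolation between bracketing concentrations; unreached endpoints set to highest concentration. TGI denotes the concentration required for complete inhibition of growth.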

Key:
Test in all cases: growth of human tumour cells (NCI), 48 h
786-0 renal = system: 786-0 renal
A498 renal = system: A498 renal
A549 NSCLC = system: A549 NSCLC
ACHN renal = system: ACHN renal
CAKI-1 renal = system: CAKI-1 renal
COLO 205 colon = system: COLO 205 colon
HS 578T breast = system: HS 578T breast
HT29 colon = system: HT29 colon
KM12 colon = system: KM12 colon
LOX IMVI melanoma = system: LOX IMVI melanoma
MALME-3M melanoma = system: MALME-3M melanoma
MDA-N = system: MDA-N
OVCAR-5 ovarian = system: OVCAR-5 ovarian
SF-268 CNS = system: SF-268 CNS
SF-295 CNS = system: SF-295 CNS
SF-539 CNS = system: SF-539 CNS
SK-MEL-5 melanoma = system: SK-MEL-5 melanoma
T-47D breast = system: T-47D breast
TK-10 renal = system: TK-10 renal

Structure (SMILES) | TGI (786-0 renal) [µM] | TGI (A498 renal) [µM] | TGI (A549 NSCLC) [µM] | TGI (ACHN renal) [µM] | TGI (CAKI-1 renal) [µM] | TGI (COLO 205 colon) [µM] | TGI (HS 578T breast) [µM] | TGI (HT29 colon) [µM] | TGI (KM12 colon) [µM] | TGI (LOX IMVI melanoma) [µM] | TGI (MALME-3M melanoma) [µM] | TGI (MDA-N) [µM] | TGI (OVCAR-5 ovarian) [µM] | TGI (SF-268 CNS) [µM] | TGI (SF-295 CNS) [µM] | TGI (SF-539 CNS) [µM] | TGI (SK-MEL-5 melanoma) [µM] | TGI (T-47D breast) [µM] | TGI (TK-10 renal) [µM]
CCCCCCCCCCCCCCCCP(=O)(O)OCC(N)C(=O)O (stereo not drawn) | > 100 | 52.2 | > 100 | 68.8 | 56.2 | > 100 | > 100 | > 100 | 43.7 | 40.1 | > 100 | > 100 | 65.1 | 74 | 44.8 | 72.3 | > 100 | > 100 | –
O=C1CSC(c2ccccc2)N1c1nc2cc3sc(N4C(=O)CSC4c4ccccc4)nc3cc2s1 (stereo not drawn) | > 100 | > 100 | > 100 | > 100 | > 100 | > 26.9 | > 100 | > 100 | > 100 | > 100 | > 100 | > 100 | > 100 | > 100 | > 100 | 15.6 | > 100 | > 100 | > 100
CC(NC(=O)OCc1ccccc1)NC(=O)OC(C)(C)C (stereo not drawn) | > 100 | > 100 | > 100 | > 100 | > 100 | > 100 | > 100 | > 100 | > 100 | > 100 | > 100 | > 100 | > 100 | > 100 | > 100 | > 100 | > 100 | > 100 | > 100
CC[C@]12C=CCN3CC[C@@]4(c5cc(Br)c(OC)c([N+](=O)[O-])c5N(C)[C@H]4[C@@](O)(C(=O)OC)[C@@H]1OC(C)=O)[C@@H]32 | > 100 | > 100 | > 100 | > 100 | > 100 | > 100 | > 100 | > 100 | > 100 | > 100 | > 100 | > 100 | > 100 | > 100 | > 100 | > 100 | > 100 | > 100 | > 100
CC(=O)NC1C(OCc2ccccc2)OC(CO)C(O)C1OC(C)C(=O)NC(C(=O)NC(CCC(=O)NCCCC(=O)Nc1ccc2c(c1)CN1C(=O)c3ccccc3C1=N2)C(N)=O)C(C)C (stereo not drawn) | > 100 | > 100 | > 100 | > 100 | > 100 | > 100 | > 100 | > 100 | > 100 | > 100 | > 100 | > 100 | > 100 | > 100 | > 100 | > 100 | > 100 | > 100 | > 100
O=c1[nH]c(=O)n(C/C=C/CO)nc1Br | > 100 | > 100 | > 100 | > 100 | > 100 | > 100 | > 100 | > 100 | > 100 | > 100 | > 100 | > 100 | > 100 | > 100 | > 100 | > 100 | > 100 | > 100 | > 100
